Tests used:
LPS-induced ALI mice = assay: LPS-induced ALI model: oxygen saturation (SO2); assay type: in vivo, Balb/c mice; conditions: CT-NA 10 or 30 mg/kg (P<0.01, dose-dependent), Dex 1 mg/kg; 24 hrs after LPS
Protocol: Specific pathogen-free (SPF) Balb/c mice (♂/♀; 20-26 g; 8 weeks old) were purchased from Shanghai SIPPR-BK Experimental Animal Co., Ltd. Mice were kept in an isolated ventilated cage in an environment of 40-60% humidity, 24±2° C., and 12 hrs/12 hrs dark-light cycle, and had free access to food and water. The method for preparing the LPS-induced ALI model was simply described as follows. The mice were randomly divided into a control group (12 mice) and an LPS group (48 mice). The LPS group (48 mice) was further divided into four subgroups (12 mice in each subgroup). The unanaesthetized mice in the four subgroups of LPS were intragastrically administered with normal saline (NS), CT-NA at 10 mg/kg or 30 mg/kg, and Dex at 1 mg/kg, respectively. One hour later, the mice were anesthetized with sodium pentobarbital (intraperitoneal injection at 40 mg/kg), and then subjected to intratracheal instillation of NS to control group and LPS (4 mg/kg) to all LPS subgroups. 12 hrs later, the unanaesthetized mice of the LPS group were intragastrically administered with NS, CT-NA at 10 mg/kg or 30 mg/kg, or Dex at 1 mg/kg, respectively (FIG. 16). […] 24 hrs after LPS challenge, the oxygen saturation (SO2) of all mice was measured by a Moor VMS-OXY™ instrument which measured SO2 (%) in the microcirculation at the wavelength range of 500 to 650 nm. […]

RAW 264.7 macrophages = assay: In vitro cytokines mRNA by RT-PCR, CSE- and PGD2-stimulated macrophages; assay type: cell-based, mouse; conditions: CT-NA 10 and 100 μM, p<0.01
Protocol: The cigarette smoke generated from 3R4F research grade cigarettes was passed through 50 ml PBS by a vacuum pump. Five cigarettes were used to make smoke that passed 50 ml PBS, and each cigarette was lit for 5 minutes. The control solution was prepared in the absence of cigarettes by using a similar method. After extraction, CSE was stored at −80° C.
RAW 264.7 macrophages were added to two 12-well plates. Thereafter, the medium of the 12-well plate was replaced with serum-free RPMI-1640 medium, and the macrophages were incubated for 10-12 hrs and then exposed to CT-NA (10 and 100 μM) for 1 hour. One hour later, one 12-well plate was treated with CSE (4%) and the other with PGD2 (10 μM) for 24 hrs. After the treatment, the supernatant of the treated cells was collected to measure the protein levels of TNF-α, IL-1β, IL-6, KC and IL-10 extracellularly secreted using ELISA kits according to the method of the instructions. Subsequently, RNA samples from each treated plate were extracted and reverse-transcripted into cDNA with HiScript5xQRTSuperMix, and then subjected to RT-PCR. RT-PCR was performed with the BioRad CFX96 Touch™ Real-Time PCR Detection System (BioRad, USA) using AceQ® qPCR SYBR Green Master Mix. And the threshold cycle numbers were obtained using BioRad CFX Manager Software. The primers used for RT-PCR reaction were shown in Table 1. β-actin was used as an internal control. The RT-PCR reactions were triplicated and the relative expression of target mRNA was normalized by the respective β-actin.

RAW264.7 macrophages = assay: RT-PCR analysis, LPS- or PGD2-stimulated RAW264.7; assay type: cell-based, mouse; conditions: CT-NA 10 and 100 μM, P<0.05 or P<0.01
Protocol: For ELISA and RT-PCR, RAW 264.7 macrophages were acclimated to two 12-well plates at 70-80% confluence. Thereafter, the medium in the 12-well plate was replaced with serum-free RPMI-1640 medium for 10-12 hrs and then exposed to CT-NA (10 and 100 μM) for 1 hour. One hour later, one 12-well plate was treated with LPS (100 ng/ml) for 24 hrs, and the other was treated with PGD2 (10 μM) for 24 hrs. After the treatment, the supernatant of the treated cells was collected to measure the protein levels of TNF-α, IL-1β, IL-6, and KC using ELISA kits according to the method of the instructions. Subsequently, RNA samples from each treated plate were extracted and reverse-transcripted into cDNA with HiScript5xQRTSuperMix, and then subjected to RT-PCR using BioRad CFX96 Touch™ real-time PCR detection system (San Diego, Calif.). Similarly, total RNAs extracted from treated isolated peritoneal macrophages were subjected to analyze the mRNA levels of IL-10, TNF-α, IL-6 and KC. The primers used in the RT-PCR reaction were shown in Table 2. β-actin was used as an internal control. The RT-PCR reactions were triplicated and the relative expression of target mRNA was normalized by the respective β-actin.

CS-induced ALI mice = assay: CS-induced lung injury model: in vivo cytokine assay by ELISA in BALF; design: species or system Balb/c mice; conditions: p<0.01
Protocol: Model preparation: The mice were randomly divided into 5 groups (12 mice in each group), which were the control group (the mice were exposed to fresh air), the saline group (the mice were exposed to cigarette smoke), dexamethasone (Dex) group (1 mg/kg) (the mice were exposed to cigarette smoke), CT-NA 10 mg/kg group and CT-NA 30 mg/kg group (the mice were exposed to cigarette smoke). According to the grouping, the mice were intragastrically administered saline, Dex and CT-NA, respectively. […] 24 hrs after the last exposure to the cigarette smoke, the partial pressure of oxygen (PO2) of all mice was measured by the Moor VMS-OXY™ measuring instrument, which was used to measure the oxygenated/deoxygenated hemoglobin concentration and oxygen saturation (percentage) in the microcirculation at the wavelength range of 500 to 650 nm. […] The expression levels of pro-inflammatory cytokines (TNF-α, IL-1β, IL-6), chemokines (KC) and anti-inflammatory cytokines (IL-10) in the BALF supernatant were determined using respective ELISA determination kits according to the instruction manual. After the optical density at 450 nm was measured, the expression of cytokines was calculated via the standard curve.

SMILES: CN([C@@H]1CCc2c(CC(=O)[O-])c3cccnc3n2C1)S(=O)(=O)c1ccc(F)cc1.[Na+] [Sodium salt hydrate]
- oxygen saturation (SO2) (LPS-induced ALI mice): significantly increased
- mRNA levels of IL-1β, IL-6, TNF-α and KC, CSE-stimulated (RAW 264.7 macrophages; CSE (4%) 24 hrs): inhibited
- CSE-induced inhibition of IL-10, mRNA (RAW 264.7 macrophages; CSE (4%), dose-dependent): reversed
- mRNA levels of IL-1β, IL-6, TNF-α and KC, PGD2-stimulated (RAW 264.7 macrophages; PGD2 (10 μM) 24 hrs): inhibited
- PGD2-induced inhibition of IL-10, mRNA (RAW 264.7 macrophages; PGD2 (10 μM), dose-dependent): reversed
- mRNA expressions of IL-1β, TNF-α, IL-6 and KC, LPS-stimulated (RAW264.7 macrophages; LPS, dose-dependent): reduced
- mRNA expressions of IL-1β, TNF-α, IL-6 and KC, PGD2-stimulated (RAW264.7 macrophages; PGD2, dose-dependent): reduced
- CS-induced overexpression of TNF-α, IL-1β, IL-6 and KC in BALF (CS-induced ALI mice; CT-NA 10 and 30 mg/kg intragastric): effectively reduced
- CS-induced inhibition of IL-10 in BALF (CS-induced ALI mice; CT-NA treatment): reversed

Reference: patent US20220098197A1, “SALTS OF HETEROCYCLIC COMPOUND AND USE THEREOF” (priority 2019, published 2022)
